# Test results as given in article PMC6332220, “Synthesis, Characterization and Biological Evaluation of Some Quinoxaline Derivatives: A Promising and Potent New Class of Antitumor and Antimicrobial Agents” (Molecules, 2015).
# Legend:
# [1] = tested on: Aspergillus fumigatus; experiment: Disk diffusion, Aspergillus fumigatus; assay type: cell-based; details: Fungi, 8.0 mm disks, 10 μL
# Experimental: (§1) The disk diffusion method was used for determination of the antimicrobial activity using ampicillin, gentamicin and amphotericin B as reference drugs. The results were recorded for each compounds as the average diameter as inhibition zones (IZ) of bacterial or fungal growth around the discs in mm as shown in Table 2.
# (§2) Antimicrobial activities were carried out against highly pathogenic strains; three strains of Gram positive bacteria (Bacillus subtilis, Staphylococcus aureus and Streptococcus faecalis), four strains of Gram negative bacteria (Escherichia coli, Neisseria gonorrhoeae, Pseudomonas aeruginosa and Salmonella typhimurium) and three fungi strains (Aspergillus flavus, Aspergillus fumigatus and Candida albicans) isolated from primary agar plates. Antimicrobial activity of the tested samples was determined using a modified Kriby-Bauer disk diffusion method. Briefly, 100 µL of the test bacteria/fungi were grown in 10 mL of fresh media until they reached a count approximately 10^8 cells/mL for bacteria or 10^5 cells/mL for fungi. 100 µL of microbial suspension was spread onto agar plates corresponding to the broth in which they were maintained. The inoculated plates of bacterial strains were incubated at 35–37 °C for 24–48 h, while the inoculated plates of fungal strains such as A. flavus and A. fumigatus were incubated at 25 °C for 48 h and yeast as C. albicans was incubated at 30 °C for 24–48 h.
# (§3) The agar disk diffusion (qualitative) method was used in this investigation for determination of the preliminary antibacterial and antifungal activities. The agar used was Mueller-Hinton agar plates that are rigorously tested for composition and pH. Further the depth of the agar in the plate is a factor to be considered in the disk diffusion method.
# (§4) Reference drugs: ampicillin was used as a standard antibacterial drug for Gram positive bacteria, gentamicin as a standard antibacterial drug for Gram negative bacteria and amphotericin B as antifungal standard drug.
# (§5) Bacterial and fungal strains were spread onto the surface of the agar plates using sterile cotton swabs. For evaluation of antibacterial activities, blank paper disks (Schleicher & Schuell, Alicante, Spain) with a diameter of 8.0 mm were saturated with 10 μL of tested concentration of the stock solutions. Disks were dried and then placed onto inoculated agar plates. The plates of bacterial strains were reincubated at 35–37 °C for 24–48 h, while the plates of fungal strains such as A. flavus and A. fumigatus were reincubated at 25 °C for 48 h and yeast as C. albicans was reincubated at 30 °C for 24–48 h as mentioned above. […] For an accurate analysis, tests were run in triplicate for each strain to avoid any error as described in Table 2.
# (§6) Disk diffusion method for filamentous fungi testing by using approved standard method (M02-A11) developed by the CLSI for evaluating the susceptibilities of filamentous fungi to antifungal agents. Disk diffusion method for yeasts developed by using approved standard method (M44-A2) by the CLSI [44]. Agar-based methods such as disk diffusion can be good alternatives because they are simpler and faster than broth-based methods.
# [2] = tested on: Aspergillus flavus; experiment: Disk diffusion, Aspergillus flavus; assay type: cell-based; details: Fungi, 8.0 mm disks, 10 μL
# Experimental: as §1, §2, §3, §4, §5, §6
# [3] = tested on: Streptococcus faecalis; experiment: Disk diffusion, Streptococcus faecalis; assay type: cell-based; details: Gram positive, 8.0 mm disks, 10 μL
# Experimental: as §1, §2, §3, §4, §5
# [4] = tested on: Escherichia coli; experiment: Disk diffusion, Escherichia coli; assay type: cell-based; details: Gram negative, 8.0 mm disks, 10 μL
# Experimental: as §1, §2, §3, §4, §5
# [5] = tested on: Escherichia coli; experiment: MIC by broth dilution, Escherichia coli; assay type: cell-based; details: Escherichia coli, Gram negative, 0.98-125 µg/mL, read-out: Minimum Inhibitory Concentration (MIC) (µg/mL) Escherichia coli
# Experimental: (§7) In this study, MIC (quantitative method) was used for evaluation of the antimicrobial activity of tested compounds. Screening was evaluated in vitro using the Broth dilution method according to CLSI [45]. All the bacteria were incubated and activated at 30 °C for 24 h inoculation into nutrient broth and the fungi were incubated in malt extract broth for 48 h. The compounds were dissolved in DMSO and then diluted using […] Mueller-Hinton broth. […] In each case triplicate tests were performed and the average was taken as the final reading. The tubes were then inoculated with the test organisms, grown in their suitable broth at 37 °C for 24 h for tested microorganisms (1 × 10^8 CFU/mL for bacteria and 1 × 10^6 CFU/mL of fungi), each 5 mL received 0.1 mL of the above inoculum and incubated at 37 °C for 24 h.
# [6] = tested on: NCI-H460 (non-small cell lung cancer); experiment: In vitro cytotoxicity, SRB cell growth assay, NCI-H460; details: Homo sapiens, NCI-H460, 48 h, read-out: IC50 (μg/mL) NCI-H460
# Experimental: The in vitro cytotoxic activity of the newly synthesized compounds against human breast cell line (MCF7), non-small cell lung cancer NCIH460, CNS cancer SF-268 and WI 38 (normal fibroblast cells) were evaluated using doxorubicin as the reference drug according to the method reported by Skehan et al..
# The newly synthesized compounds were evaluated in vitro against three human cancer cell lines; which are MCF-7 (breast adenocarcinoma), NCI-H460 (non-small cell lung cancer) and SF-268 (CNS cancer), and WI 38 (normal fibroblast cells) were used in this study. MCF-7 was obtained from the European Collection of Cell Cultures (ECACC, Salisbury, UK) but NCI-H460, SF-268 and WI 38 were kindly provided by the National Cancer Institute (NCI, Cairo, Egypt). They grow as monolayer and routinely maintained RPMI-1640 medium supplemented with 5% heat inactivated fetal bovine serum (FBS), 2 mM glutamine and antibiotics (penicillin 100 U/mL, streptomycin 100 µg/mL), at 37 °C in a humidified atmosphere containing 5% CO2. Exponentially growing cells were obtained by plating 1.5 × 10^5 cells/mL for MCF-7 and SF-268, and 0.75 × 10^4 cells/mL for NCI-H460 followed by 24 h of incubation. The effect of the vehicle solvent (DMSO) on the growth of these cell lines was evaluated in all experiments by exposing untreated control cells to the maximum concentration (0.5%) of DMSO used in each assay.
# The effect of compounds on the in vitro growth of human tumor cell lines were evaluated according to the procedure adopted by the National Cancer Institute ([…]) in the “In vitro Anticancer Drug Discovery Screen” that uses the protein-binding dye sulforhodamine B (SRB) to assess cell growth. In the assay protocol, all cells were incubated at 37 °C under humidified atmosphere containing 5% CO2. Briefly, exponentially cells growing in 96-well plates were then exposed for 48 h to five serial concentrations of each compound, starting from a maximum concentration of 150 μg/mL. Following this exposure period adherent cells were fixed, washed and stained. The bound stain was solubilized and the absorbance was measured at 492 nm in a plate reader (Bio-Tek Instruments Inc., Power wave XS, Winston, NC, USA). For each test compound and cell line, a dose response curve was obtained and the inhibitory concentration of 50% (IC50), corresponding to the concentration of the compounds that inhibited 50% of the net cell growth was calculated as described elsewhere. Doxorubicin was used as a positive control and tested in the same manner.
# [7] = tested on: Streptococcus faecalis; experiment: MIC by broth dilution, Streptococcus faecalis; assay type: cell-based; details: Enterococcus faecalis, Gram positive, 0.98-125 µg/mL, read-out: Minimum Inhibitory Concentration (MIC) (µg/mL) Streptococcus faecalis
# Experimental: as §7
# [8] = tested on: Pseudomonas aeruginosa; experiment: MIC by broth dilution, Pseudomonas aeruginosa; assay type: cell-based; details: Pseudomonas aeruginosa, Gram negative, 0.98-125 µg/mL, read-out: Minimum Inhibitory Concentration (MIC) (µg/mL) Pseudomonas aeruginosa
# Experimental: as §7
SMILES,Inhibition Zone Diameter (IZ) (mm) Aspergillus fumigatus [1],Inhibition Zone Diameter (IZ) (mm) Aspergillus flavus [2],Inhibition Zone Diameter (IZ) (mm) Streptococcus faecalis [3] [mm],Inhibition Zone Diameter (IZ) (mm) Escherichia coli [4] [mm],MIC [5] [µg/mL],IC50 [6] [µg/mL],MIC [7] [µg/mL],MIC [8] [µg/mL]
"NNc1nc2cc(Br)ccc2nc1Cl [Compound 3, 6-Bromo-2-chloro-3-hydrazinylquinoxaline]",R (R (IZ = 0 mm)),R (R (IZ = 0 mm)),14,13,3.9,26.7 ± 2.18,15.6,125
"Brc1ccc2c(c1)n1nnnc1c1nnnn21 [Compound 11, 9-Bromoditetrazolo[1,5-a:5′,1′-c]quinoxaline]",R (R (IZ = 0 mm)),R (R (IZ = 0 mm)),15,15,62.5,2.83 ± 0.53,62.5,125
"Brc1ccc2nc(N3CCOCC3)c3nnnn3c2c1 [Compound 5b, 8-Bromo-4-(morpholin-4-yl)tetrazolo[1,5-a]quinoxaline]",12 mm,R (R (IZ = 0 mm)),11,11,1.95,0.01 ± 0.002,3.9,> 125
"Cc1cc(C)n(-c2nc3cc(Br)ccc3nc2NN)n1 [Compound 14, 6-Bromo-3-(3,5-dimethyl-1H-pyrazol-1-yl)-2-hydrazinyl quinoxaline]",R (R (IZ = 0 mm)),R (R (IZ = 0 mm)),12,12,3.9,38.3 ± 2.35,1.95,125
"NC1=NN(c2nc3ccc(Br)cc3nc2N2N=C(N)CC2=O)C(=O)C1 [Compound 16, 6-Bromo-2,3-bis(3-amino-1H-pyrazol-5(4H)-one)quinoxaline]",R (R (IZ = 0 mm)),R (R (IZ = 0 mm)),11,10,3.9,22.9 ± 0.46,31.2,125
"Clc1nc2ccc(Br)cc2n2nnnc12 [Compound 4, 8-Bromo-4-chlorotetrazolo[1,5-a]quinoxaline]",10 mm,13 mm,18,17,3.9,0.01 ± 0.004,0.98,> 125
"NNc1nc2ccc(Br)cc2nc1NN [Compound 9, 6-Bromo-2,3-dihydrazinylquinoxaline]",5 mm,R (R (IZ = 0 mm)),27,29,1.95,16.4 ± 2.32,0.98,125
"Brc1ccc2nc(N3CCCCC3)c3nnnn3c2c1 [Compound 5a, 8-Bromo-4-(piperidin-1-yl)tetrazolo[1,5-a]quinoxaline]",12 mm,R (R (IZ = 0 mm)),9,13,125,0.02 ± 0.006,62.5,125
